# Measurements as given in ChEMBL document CHEMBL1138313, “Cyclization of the acyl glucuronide metabolite of a neutral endopeptidase inhibitor to an electrophilic glutarimide: synthesis, reactivity, and mechanistic analysis” (J Med Chem, 2007).
# How the values were obtained:
# Type in all cases: ADME, organism-based
# [1] = Biodistribution in Wistar rat bile at 50 umol/kg, iv after 1 hr; settings: read-out: Drug uptake
# [2] = Biodistribution in Wistar rat bile at 50 umol/kg, iv after 5 hrs; settings: read-out: Drug uptake
# Rattus norvegicus = assay: Biodistribution in Wistar rat bile at 15 umol/kg, iv; settings: in vivo
# [3] = Biodistribution in Wistar rat urine at 15 umol/kg, iv after 5 hrs; settings: read-out: Drug uptake
# [4] = Biodistribution in Wistar rat bile assessed as drug elimination at 15 umol/kg, iv after 1 hr; settings: read-out: Drug uptake
# [5] = Biodistribution in Wistar rat bile assessed as drug elimination at 15 umol/kg, iv after 5 hrs; settings: read-out: Drug uptake
# Plasma = assay: Biodistribution in Wistar rat plasma per mL at 15 umol/kg, iv after 5 hrs; settings: in vivo
dose excreted at 1 h [1] [%],dose excreted at 5 h [2] [%],Drug uptake (Rattus norvegicus) [%],dose excreted at 5 h [3] [%],dose excreted at 1 h [4] [%],dose excreted at 5 h [5] [%],Drug uptake (Plasma) [%ID],SMILES
4.5,11,6,–,–,–,–,CCC[C@@H]1CC2(CCCC2)C(=O)N(c2nnc(CC)s2)C1=O
–,–,–,4.9,28.7,75.1,0.3,CCC[C@H](CC1(C(=O)Nc2nn[14c](CC)s2)CCCC1)C(=O)O
